Source: patent publication US20100167397A1, “ENDOCRINE CELL LINES AND METHOD OF USING THE SAME” (KYOWA HAKKO KOGYO CO., LTD., priority 2002, published 2010)

Tests used:
CRE reporter in GBCC13 = experiment: Constitutive activity of GPCR, Method 2 (GBCC13 host, firefly luciferase); assay type: cell-based, human; conditions: activity with 17β-estradiol divided by activity without, control plasmid about 1
Experimental: After the incubation, Steady Glo Luciferase Assay System (manufactured by Promega) was added and firefly luciferase activity was measured. For the measurement of activity, Auto Lumat LB953 (manufactured by Berthold) or Top Count (Packard) was used. […] It is judged that the higher the induction ratio of the cells to which a GPCR expression plasmid was transfected, the stronger the constitutive activity of the GPCR.

sulfonylurea receptor [1] = molecular target: T1, sulfonylurea receptor (Rattus norvegicus, UniProt Q09429); experiment: Intracellular Ca2+ rise on sulfonylurea in single clones derived from Langerhans islets (Fura-2AM); assay type: cell-based; conditions: single clones M-6, M-9, M-15, M-19, M-20, M-33, M-43, F-1 and F-9; 0.5 mmol/L
T1 construct: endogenous in cells; host or cells: rat islet-derived clones M-6, M-9, M-15, M-19, M-20, M-33, M-43, F-1, F-9
Experimental: About 5×10^6 cells of single clones (M-6, M-9, M-15, M-19, M-20, M-33, M-43, F-1 and F-9) of immortalized cell lines mentioned in Example 11 obtained using an RPMI 1640 (05918) medium were plated on a 60-mm dish and cultured at 33° C. for 2 days using an RPMI 1640 (05918) medium.
After the cultivation, it was washed with an HBSS buffer (manufactured by Gibco) for two times and the cells were floated. Sulfonylurea (Tolbutamide, manufactured by Alexis) was added to about 1×10^6 of the cells so as to make the final concentration 0.5 mmol/L whereupon an increase in Ca^2+ concentration in the cells was checked. Measurement of the Ca^2+ concentration in the cells was carried out using a CAF-100 instrument (manufactured by Nippon Bunko).

sulfonylurea receptor [2] = experiment: Intracellular Ca2+ rise on sulfonylurea in immortalized cell lines derived from hypothalamus (Fura-2AM, CAF-110); assay type: cell-based, rat; conditions: 0.5 mmol/L
Experimental: The immortalized cell lines (a mixture) derived from hypothalamus of female adult rat obtained in Example 3 were cultured by the method mentioned in Example 1. […] The resulting cells were washed with an HBSS buffer (manufactured by Gibco) twice and the cells were floated. Sulfonylurea (Tolbutamide; manufactured by Alexis) was added to about 1×10^6 cell to make its final concentration 0.5 mmol/L and a rise in Ca^2+ concentration in the cells was checked. Measurement of the Ca^2+ concentration in the cells was conducted using a CAF-110 instrument (manufactured by Nippon Bunko).
As same as in the above (1), reactivity of an immortalized cell line (single clone AMN2-25) derived from hypothalamus of male adult rat obtained in Example 3 with sulfonylurea was tested.

leptin receptor (Ob-Rb) [3] = molecular target: T2, leptin receptor (Ob-Rb) (Rattus norvegicus, UniProt Q62959); experiment: Leptin reactivity: change in expression of c-fos gene and SOCS-3 gene by PCR; assay type: cell-based; conditions: NC-6, NC-12 and AMN2-25; 100 nmol/L human leptin, 0 minute, 30 minutes or 1 hour
T2 construct: endogenous in cells; host or cells: rat hypothalamus-derived immortalized lines NC-6, NC-12, AMN2-25
T2 sequence (Q62959 22-1162): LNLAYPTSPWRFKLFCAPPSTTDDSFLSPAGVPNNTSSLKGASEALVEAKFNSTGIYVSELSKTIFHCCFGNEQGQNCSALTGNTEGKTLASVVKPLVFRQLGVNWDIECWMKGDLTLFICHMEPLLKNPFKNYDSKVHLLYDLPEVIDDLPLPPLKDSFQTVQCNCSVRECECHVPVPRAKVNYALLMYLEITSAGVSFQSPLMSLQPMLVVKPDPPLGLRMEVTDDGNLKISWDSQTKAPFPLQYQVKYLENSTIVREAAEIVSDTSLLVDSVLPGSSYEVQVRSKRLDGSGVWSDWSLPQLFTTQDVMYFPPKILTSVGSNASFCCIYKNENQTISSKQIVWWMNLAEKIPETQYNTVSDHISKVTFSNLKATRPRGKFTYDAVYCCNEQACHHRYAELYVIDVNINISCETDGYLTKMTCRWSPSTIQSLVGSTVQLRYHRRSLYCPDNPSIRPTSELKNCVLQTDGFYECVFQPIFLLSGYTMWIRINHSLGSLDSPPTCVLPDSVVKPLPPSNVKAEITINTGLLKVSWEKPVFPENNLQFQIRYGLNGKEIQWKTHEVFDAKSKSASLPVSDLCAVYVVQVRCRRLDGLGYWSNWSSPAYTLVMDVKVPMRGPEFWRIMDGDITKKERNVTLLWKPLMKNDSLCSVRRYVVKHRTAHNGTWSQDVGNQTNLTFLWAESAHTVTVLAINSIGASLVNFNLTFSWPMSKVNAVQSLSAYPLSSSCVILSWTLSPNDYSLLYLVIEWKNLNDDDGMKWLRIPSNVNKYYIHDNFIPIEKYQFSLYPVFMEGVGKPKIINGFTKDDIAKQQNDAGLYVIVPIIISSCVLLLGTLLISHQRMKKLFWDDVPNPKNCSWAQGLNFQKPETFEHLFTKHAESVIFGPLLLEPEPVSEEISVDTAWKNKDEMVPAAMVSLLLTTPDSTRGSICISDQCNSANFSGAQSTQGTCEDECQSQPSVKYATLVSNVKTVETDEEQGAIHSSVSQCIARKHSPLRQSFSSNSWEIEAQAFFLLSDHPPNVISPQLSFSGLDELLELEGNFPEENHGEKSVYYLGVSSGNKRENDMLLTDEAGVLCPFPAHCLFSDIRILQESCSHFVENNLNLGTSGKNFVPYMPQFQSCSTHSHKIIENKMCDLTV
Experimental: Expression of c-fos gene and SOCS-3 gene, which has been known to be increased in hypothalamic cells by leptin stimulation, was analyzed by the following method utilizing a PCR whereby the leptin reactivity of the cell line, which was confirmed to be expressing a functional OB-Rb in the above (1), was confirmed from another view.
NC-6, NC-12 and AMN2-25 were cultured according to the method mentioned in Example 1. After the cultivation, about 2×10^4 cells were plated on a 35-mm dish coated with poly-lysine and cultured out for 5 days by shifting the cultivation temperature from 33° C. to 37° C. […] After the cultivation, exchange to a DMEM/F-12 (-FCS) medium was done.
After 2 hours from the exchange of the medium, 100 nmol/L of human leptin (manufactured by R&D Systems) was added. After incubating at 37° C. for 0 minute, 30 minutes or 1 hour, total RNA was collected from each cell line using an RNeasy Mini Kit (manufactured by Qiagen). Single-stranded cDNA was synthesized from the total RNA according to the method mentioned in Example 6 and a PCR was carried out using the cDNA as a template. With regard to primers specific to c-fos gene, synthetic DNAs having the nucleotide sequences of SEQ ID NOS: 45 and 46 were used while, with regard to primers specific to SOCS-3 gene, synthetic DNAs having the nucleotide sequences of SEQ ID NOS: 47 and 48 were used. […]

leptin receptor (Ob-Rb) [4] = molecular target: T2, leptin receptor (Ob-Rb); experiment: Leptin reactivity: immunostaining using an anti-STAT antibody (STAT3 transfer from cytoplasm to nucleus); assay type: cell-based; conditions: NC-6, NC-12 and AMN2-25; 100 nmol/L human leptin, 37° C., 15 minutes; without leptin cytoplasm was stained
Experimental: In a cell line where expression of a leptin receptor (Ob-Rb) protein is confirmed by the method mentioned in Example 7, it was analyzed by the following method whether a functional Ob-Rb is expressed. The following method is a method where the fact that a transcription factor STAT3 is phosphorylated upon stimulation by leptin and is transferred from cytoplasm to nucleus is utilized.
NC-6, NC-12 and AMN2-25 expressing leptin receptor (Ob-Rb) protein are cultured according to the method mentioned in Example 1. After the cultivation, about 1×10^3 cells were plated on 8 chambers coated with CELL-TAK and cultured for 3 days where cultivation temperature was shifted from 33° C. to 37° C. […] After the cultivation, exchange to a DMEM/F-12 (-FCS) medium was conducted. After 2 hours from the exchange of the medium, the cells were stimulated with 100 nmol/L of human leptin (manufactured by R&D Systems) at 37° C. for 15 minutes.
After the stimulation, immunostaining was carried out using an anti-STAT antibody (manufactured by NEB) and a cyanine 3-labeled anti-rabbit IgG (secondary antibody) diluted to an extent of 200-fold. The immunostaining was carried out according to the manual of Phospho Plus Stat 3 (Tyr 705) Antibody it (NEB). […] After the staining, drying was conducted, mounting with a discoloration inhibitor solution was done and an observation under a fluorescence microscope was carried out.

CRE reporter in GBC7 = experiment: Constitutive activity of GPCR, Method 4 (GBC7 host, firefly luciferase); assay type: cell-based, human; conditions: activity with 17β-estradiol divided by activity without, control plasmid about 1
Experimental: This is a measuring method for constitutive activity of GPCR which is the same as Method 2 except that GBC7 was used as a host and no puromycin was added in the incubation of the transformants.
(§1) In each method, the induction ratio of the cells transfected with the control plasmid was about 1. It is judged that the higher the induction ratio of the cells to which a GPCR expression plasmid was transfected, the stronger the constitutive activity of the GPCR.

CRE reporter in GBCR2 = experiment: Constitutive activity of GPCR, Method 3 (GBCR2 host, Renilla reniformis luciferase); assay type: cell-based, human; conditions: activity with 17β-estradiol divided by activity without, control plasmid about 1
Experimental: This is a measuring method for constitutive activity of GPCR which is the same as Method 1 except that GBCR2 was used as a host and no puromycin was added in the incubation of the transformants.
as §1

T1 sequence (Q09429 whole entry): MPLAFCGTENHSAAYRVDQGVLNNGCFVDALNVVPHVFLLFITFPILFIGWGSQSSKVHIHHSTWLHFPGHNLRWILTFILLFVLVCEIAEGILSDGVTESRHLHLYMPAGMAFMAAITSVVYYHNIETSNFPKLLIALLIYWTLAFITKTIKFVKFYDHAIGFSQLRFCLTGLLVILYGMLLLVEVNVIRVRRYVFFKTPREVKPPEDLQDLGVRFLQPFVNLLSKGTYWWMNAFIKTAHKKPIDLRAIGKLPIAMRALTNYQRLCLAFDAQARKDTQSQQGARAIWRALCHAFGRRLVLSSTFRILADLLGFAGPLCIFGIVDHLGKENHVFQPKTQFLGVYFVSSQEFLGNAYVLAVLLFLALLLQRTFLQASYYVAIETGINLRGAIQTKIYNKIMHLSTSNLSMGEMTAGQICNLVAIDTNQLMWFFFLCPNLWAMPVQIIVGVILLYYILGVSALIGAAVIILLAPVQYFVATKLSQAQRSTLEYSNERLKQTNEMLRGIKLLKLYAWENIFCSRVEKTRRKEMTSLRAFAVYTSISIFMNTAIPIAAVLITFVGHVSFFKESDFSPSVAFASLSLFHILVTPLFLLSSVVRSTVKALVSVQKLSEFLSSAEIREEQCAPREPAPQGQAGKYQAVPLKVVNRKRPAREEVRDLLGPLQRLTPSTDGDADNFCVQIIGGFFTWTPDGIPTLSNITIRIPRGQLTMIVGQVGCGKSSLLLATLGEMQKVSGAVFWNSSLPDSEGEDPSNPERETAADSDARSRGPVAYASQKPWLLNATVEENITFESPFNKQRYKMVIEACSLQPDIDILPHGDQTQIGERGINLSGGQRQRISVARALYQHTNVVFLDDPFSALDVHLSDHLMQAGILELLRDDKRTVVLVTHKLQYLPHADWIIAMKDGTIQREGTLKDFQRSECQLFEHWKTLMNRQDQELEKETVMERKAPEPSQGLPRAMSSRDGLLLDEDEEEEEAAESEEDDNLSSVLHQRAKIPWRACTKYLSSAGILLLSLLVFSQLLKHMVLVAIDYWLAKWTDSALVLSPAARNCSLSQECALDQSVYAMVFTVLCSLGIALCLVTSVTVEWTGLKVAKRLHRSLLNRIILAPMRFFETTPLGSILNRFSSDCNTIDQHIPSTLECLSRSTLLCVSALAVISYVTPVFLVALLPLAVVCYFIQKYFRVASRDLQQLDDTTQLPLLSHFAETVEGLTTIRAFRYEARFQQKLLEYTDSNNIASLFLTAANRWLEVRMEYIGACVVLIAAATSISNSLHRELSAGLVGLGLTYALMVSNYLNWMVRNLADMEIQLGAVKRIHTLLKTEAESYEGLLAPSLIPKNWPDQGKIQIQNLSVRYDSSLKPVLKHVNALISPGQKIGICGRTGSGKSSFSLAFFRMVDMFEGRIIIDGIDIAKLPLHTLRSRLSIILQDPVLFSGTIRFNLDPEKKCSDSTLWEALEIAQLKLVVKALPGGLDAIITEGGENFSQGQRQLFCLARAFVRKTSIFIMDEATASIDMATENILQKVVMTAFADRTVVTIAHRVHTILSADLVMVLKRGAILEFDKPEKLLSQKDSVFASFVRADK
T1 sequence (P70673 whole entry partner): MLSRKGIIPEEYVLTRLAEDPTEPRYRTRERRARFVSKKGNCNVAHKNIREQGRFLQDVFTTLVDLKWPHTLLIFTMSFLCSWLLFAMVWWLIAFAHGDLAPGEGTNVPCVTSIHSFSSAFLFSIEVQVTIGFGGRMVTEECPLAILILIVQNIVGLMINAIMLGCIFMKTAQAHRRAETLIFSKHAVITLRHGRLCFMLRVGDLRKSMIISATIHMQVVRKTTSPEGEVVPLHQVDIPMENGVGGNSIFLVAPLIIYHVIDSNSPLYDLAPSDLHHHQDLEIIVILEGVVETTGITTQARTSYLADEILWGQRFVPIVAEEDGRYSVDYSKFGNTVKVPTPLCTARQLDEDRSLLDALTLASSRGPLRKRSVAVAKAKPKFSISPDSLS

GPR 25 was tested, and the “Constitutive Activity (induction ratio)” value (CRE reporter in GBCC13) was 4.8-fold.

In the case of CCCCNC(=O)NS(=O)(=O)c1ccc(C)cc1 [sulfonylurea, Tolbutamide], the “Ca2+ concentration in the cells” value (sulfonylurea receptor [1]) is reported as “increased”, the “rise in Ca2+ concentration in the cells” value (sulfonylurea receptor [2]; immortalized cell lines (a mixture) from hypothalamus of female adult rat) is reported as “cell lines which reacted with sulfonylurea were present” and the “Ca2+ concentration in the cell” value (sulfonylurea receptor [2]; single clone AMN2-25) is reported as “increased”.

For “leptin: human leptin (manufactured by R&D Systems)”, the “expression of SOCS-3 gene by stimulation with leptin” value (leptin receptor (Ob-Rb) [3]) was “increased”, the “expression of c-fos gene by stimulation with leptin” value (leptin receptor (Ob-Rb) [3]) was “increased” and the “STAT3 immunostaining upon stimulation with leptin” value (leptin receptor (Ob-Rb) [4]) was “the area inside the nucleus was stained”.

In the case of GPR 52, the “Constitutive Activity (induction ratio)” value (CRE reporter in GBC7) is reported as 40-fold.

B1: GPR 12 (protein, UniProt P47775 1-334, looked up)
G-protein coupled receptor 12: MNEDLKVNLSGLPRDYLDAAAAENISAAVSSRVPAVEPEPELVVNPWDIVLCTSGTLISCENAIVVLIIFHNPSLRAPMFLLIGSLALADLLAGIGLITNFVFAYLLQSEATKLVTIGLIVASFSASVCSLLAITVDRYLSLYYALTYHSERTVTFTYVMLVMLWGTSICLGLLPVMGWNCLRDESTCSVVRPLTKNNAAILSVSFLFMFALMLQLYIQICKIVMRHAHQIALQHHFLATSHYVTTRKGVSTLAIILGTFAACWMPFTLYSLIADYTYPSIYTYATLLPATYNSIINPVIYAFRNQEIQKALCLICCGCIPSSLAQRARSPSDV
For B1, the “Constitutive Activity (induction ratio)” value (CRE reporter in GBCR2) was 188-fold.
